The text below walks through data of US20060063711A1, “Use of sglt homolog” (priority 2002, published 2006).

For orientation: Km means the concentration of substrate that gives half-maximal velocity.

The target of assay [1] is T1, human SGLT1 (Homo sapiens, UniProt P13866).
T1 sequence (P13866 1-664): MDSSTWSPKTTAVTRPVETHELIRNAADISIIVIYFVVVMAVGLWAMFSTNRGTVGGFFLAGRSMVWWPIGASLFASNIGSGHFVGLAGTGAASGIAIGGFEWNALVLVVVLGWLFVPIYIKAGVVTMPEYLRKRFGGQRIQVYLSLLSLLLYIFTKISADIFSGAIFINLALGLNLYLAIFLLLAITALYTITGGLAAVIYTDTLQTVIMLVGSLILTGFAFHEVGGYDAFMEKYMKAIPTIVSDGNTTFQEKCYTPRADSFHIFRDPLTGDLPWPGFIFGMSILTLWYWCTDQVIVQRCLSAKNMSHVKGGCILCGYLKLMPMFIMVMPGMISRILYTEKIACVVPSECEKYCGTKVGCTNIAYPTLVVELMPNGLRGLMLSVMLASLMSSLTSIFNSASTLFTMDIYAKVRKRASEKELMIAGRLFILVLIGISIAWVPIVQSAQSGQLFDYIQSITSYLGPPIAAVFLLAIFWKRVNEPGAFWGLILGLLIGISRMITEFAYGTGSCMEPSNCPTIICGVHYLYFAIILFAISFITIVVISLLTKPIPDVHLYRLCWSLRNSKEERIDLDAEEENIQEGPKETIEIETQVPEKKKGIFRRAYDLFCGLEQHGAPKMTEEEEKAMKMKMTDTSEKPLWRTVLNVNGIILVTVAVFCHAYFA
As to the kind of experiment: substrate specificity, α-methyl glucose uptake test in human SGLT1-transfected COS7 cells. The format is cell-based. The arrangement: expressed in transfected cells; host or cells: COS7 cells. Conditions: sugar added at 0, 1 and 10 mM. Here is the method: (§1) The human SGLT homolog or human SGLT1-transfected COS7 cells were prepared and the respective substrate specificities were examined. The α-methyl glucose uptake test was carried out in accordance with the procedures described in Am. J. Physiol., 270: G833-G843, 1996 and J. Clin. Invest., 93: 397-404, 1994. The cells were plated on 100 μl of DMEM medium containing 10% FBS charged in a 96-well plate in a cell density of 3×10^4 cells/well, followed by culturing overnight at 37° C. Each well was washed 3 times with a reaction buffer solution supplemented with 125 mM N-Methyl-D-Glucamine (1.2 mM KH2PO4, 2.5 mM CaCl2, 1.2 mM MgSO4, 4 mM Glutamine, 10 mM HEPES (pH 7.2), 0.1 mg/ml BSA) and further cultured for an hour in the same buffer solution to remove the glucose remained in the cells. Next, 150 mM NaCl was added to the reaction buffer solution above and glucose or galactose was added to the mixture in 0, 1 and 10 mM, respectively. Then 90 μl each of the thus prepared mixtures was added per well. […] After washing 3 times with 200 μl of chilled PBS, 100 μl each of liquid scintillator was added per well and the radioactivity of ^14C taken up into the cells was counted with a scintillation counter.

Assay [2] has as its target T2, human SGLT homolog (Homo sapiens, UniProt Q2M3M2, I269M).
T2 sequence (Q2M3M2 8-681 I269M limits assumed): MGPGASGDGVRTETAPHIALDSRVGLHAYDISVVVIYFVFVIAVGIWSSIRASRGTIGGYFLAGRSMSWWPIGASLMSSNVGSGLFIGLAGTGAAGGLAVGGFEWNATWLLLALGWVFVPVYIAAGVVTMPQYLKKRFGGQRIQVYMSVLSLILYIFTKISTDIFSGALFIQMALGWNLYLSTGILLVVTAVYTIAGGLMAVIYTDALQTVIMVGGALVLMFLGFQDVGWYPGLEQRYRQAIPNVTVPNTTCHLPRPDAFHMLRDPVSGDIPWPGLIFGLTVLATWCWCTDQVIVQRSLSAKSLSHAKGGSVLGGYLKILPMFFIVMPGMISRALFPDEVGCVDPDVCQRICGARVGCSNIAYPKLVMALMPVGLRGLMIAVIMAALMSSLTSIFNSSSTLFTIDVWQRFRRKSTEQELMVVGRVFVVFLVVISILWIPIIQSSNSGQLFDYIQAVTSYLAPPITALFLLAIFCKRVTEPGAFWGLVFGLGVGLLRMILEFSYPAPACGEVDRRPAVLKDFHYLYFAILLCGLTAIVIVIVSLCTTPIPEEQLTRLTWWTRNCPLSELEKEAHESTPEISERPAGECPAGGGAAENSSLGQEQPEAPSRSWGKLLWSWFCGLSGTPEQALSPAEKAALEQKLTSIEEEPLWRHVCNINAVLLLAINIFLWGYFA
Kind of assay: substrate specificity, α-methyl glucose uptake test in human SGLT homolog-transfected COS7 cells. Conditions: sugar added at 0, 1 and 10 mM. The format is cell-based. On the set-up: expressed in transfected cells; host or cells: COS7 cells. As for the experimental part: as §1

Assay [3] has as its target T1, human SGLT1. As to the kind of experiment: kinetic analysis of glucose uptake in human SGLT1-transfected COS7 cells.
Procedure: (§2) The human SGLT homolog or the human SGLT1-transfected COS7 cells were prepared and subjected to kinetic analysis of glucose uptake, respectively. […] The cells were plated on 100 μl of DMEM medium containing 10% FBS charged in a 96-well plate in a cell density of 3×10^4 cells/well, followed by culturing overnight at 37° C. […] Then 90 μl each of the thus prepared mixtures was added per well. In addition, 10 μl each of α-methyl glucose in a final concentration of 1 mM, which contained 0.02 μCi of [^14C]-α-methyl glucose (Amersham Pharmacia Biotech, Inc.), was added per well to carry out a glucose uptake reaction for an hour. After washing 3 times with 200 μl of chilled PBS, 100 μl each of liquid scintillator was added per well and the radioactivity of ^14C taken up into the cells was counted with a scintillation counter to determine Km and Vmax in the glucose uptake.
Assay [4] addresses T2, human SGLT homolog. As to the kind of experiment: kinetic analysis of glucose uptake in human SGLT homolog-transfected COS7 cells.
Procedure: as §2
Where [5] appears, read: read-out: Km in the glucose uptake, α-methyl glucose 0 to 20 mM, 150 mM NaCl.
Where [6] appears, read: α-methyl glucose 0 to 20 mM, 150 mM NaCl.

On to `O=C[C@H](O)[C@@H](O)[C@@H](O)[C@H](O)CO` [galactose], for which the “affinity (competition of α-methyl glucose uptake)” value is given as “had affinity” in assay [1] and “little affinity” in assay [2].
Consider `COC1OC(CO)C(O)C(O)C1O` (stereo not drawn) [α-methyl glucose], for which the values for the Km in assay [3] (setting [5]) and in assay [4] (setting [5]) were 1.8 mM and 7.9 mM, respectively. For the same molecule, the “Vmax in the glucose uptake” value in assay [3] (setting [6]) is given as 3.9 nmol/hour/106 cells; in assay [4] (setting [6]) it was 8.0 nmol/hour/106 cells.
